According to the supplement of paper PMC10307832:

How the values were obtained:
Test in all cases: relative viability (nuclei count vs DMSO), 5 days (fraction); higher = more cells survive
[1] = compound: CC1=C(N=C(N=C1N)[C@H](CC(=O)N)NC[C@@H](C(=O)N)N)C(=O)N[C@@H]([C@H](C2=CN=CN2)OC3C(C(C(C(O3)CO)O)O)OC4C(C(C(C(O4)CO)O)OC(=O)N)O)C(=O)N[C@H](C)[C@H]([C@H](C)C(=O)N[C@@H]([C@@H](C)O)C(=O)NCCC5=NC(=CS5)C6=NC(=CS6)C(=O)NCCC[S+](C)C)O [Bleomycin] + CC(=O)Nc1cccc(-n2c(=O)n(C3CC3)c(=O)c3c(Nc4ccc(I)cc4F)n(C)c(=O)c(C)c32)c1 [Trametinib] (partner 0.02 µM); conditions: main component drawn
Outline: (§1)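 Lung cancer cell lines were pin-tool dosed in 1536-well plates on the day after seeding, with either a lone drug or a fixed anchor-drug dose plus five library-drug doses (not always all listed) in √10 steps. Nuclei were counted on 4× images after 5 days. Relative viability is the ratio of treated-well to vehicle-well nuclei counts, with each value a median of duplicate plates.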

[2] = compound: CC1=C(N=C(N=C1N)[C@H](CC(=O)N)NC[C@@H](C(=O)N)N)C(=O)N[C@@H]([C@H](C2=CN=CN2)OC3C(C(C(C(O3)CO)O)O)OC4C(C(C(C(O4)CO)O)OC(=O)N)O)C(=O)N[C@H](C)[C@H]([C@H](C)C(=O)N[C@@H]([C@@H](C)O)C(=O)NCCC5=NC(=CS5)C6=NC(=CS6)C(=O)NCCC[S+](C)C)O [Bleomycin] + C[C@@H](Oc1cc(-c2cnn(C3CCNCC3)c2)cnc1N)c1c(Cl)ccc(F)c1Cl [Crizotinib] (partner 1 µM); conditions: main component drawn
Outline: as §1

[3] = compound: COc1cc([C@@H]2c3cc4c(cc3[C@@H](O[C@@H]3O[C@@H]5CO[C@@H](C)O[C@H]5[C@H](O)[C@H]3O)[C@H]3COC(=O)[C@H]23)OCO4)cc(OC)c1O [Etoposide] + CC(C)C[C@H](NC(=O)[C@H](Cc1ccccc1)NC(=O)c1cnccn1)B(O)O [Bortezomib] (partner 0.002 µM)
Outline: as §1

[4] = compound: COc1cc([C@@H]2c3cc4c(cc3[C@@H](O[C@@H]3O[C@@H]5CO[C@@H](C)O[C@H]5[C@H](O)[C@H]3O)[C@H]3COC(=O)[C@H]23)OCO4)cc(OC)c1O [Etoposide] + Nc1nc2[nH]cc(CCc3ccc(C(=O)N[C@@H](CCC(=O)O)C(=O)O)cc3)c2c(=O)[nH]1 [Pemetrexed] (partner 0.2 µM)
Outline: as §1

UMC-11
relative viability ([1]; first compound 0.01 µM): 0.653
relative viability ([1]; first compound 0.03162 µM): 0.652
relative viability ([1]; first compound 0.1 µM): 0.774
relative viability ([1]; first compound 0.3162 µM): 0.632
relative viability ([1]; first compound 1 µM): 0.345
relative viability ([2]; first compound 0.01 µM): 0.528
relative viability ([2]; first compound 0.03162 µM): 0.571
relative viability ([2]; first compound 0.1 µM): 0.419
relative viability ([2]; first compound 0.3162 µM): 0.326
relative viability ([2]; first compound 1 µM): 0.252
relative viability ([3]; first compound 0.01 µM): 0.685
relative viability ([3]; first compound 0.03162 µM): 0.777
relative viability ([3]; first compound 0.3162 µM): 0.389
relative viability ([3]; first compound 1 µM): 0.187
relative viability ([4]; first compound 0.01 µM): 0.809
relative viability ([4]; first compound 0.03162 µM): 0.789
relative viability ([4]; first compound 0.1 µM): 0.768
relative viability ([4]; first compound 0.3162 µM): 0.53
relative viability ([4]; first compound 1 µM): 0.313
